This note sets out measurements from patent publication US9133180B2, “Aurora and FLT3 kinases modulators” (SAREUM LIMITED, priority 2012, dated 2015).

For data set [1], the target named is FLT3 kinase (Homo sapiens (Human), UniProt P36888). The data set is described as follows: FLT3 kinase 33P-ATP filter assay (Reaction Biology Corp.). It is filed as biochemical. The method, then:
(§1) The ability of the compounds of the invention to inhibit FLT3 kinase and Aurora A and Aurora B kinases was determined using the assays described below.
(§2) Kinase assays were performed at Reaction Biology Corp., Malvern, Pa., USA, using the following general procedure:
(§3) 1) Prepare indicated substrate in freshly prepared Base Reaction Buffer (20 mM Hepes pH 7.5, 10 mM MgCl2, 1 mM EGTA, 0.02% Brij35, 0.02 mg/ml BSA, 0.1 mM Na3VO4, 2 mM DTT, 1% DMSO).
(§4) 2) Deliver cofactors (1.5 mM CaCl2, 16 ug/mL Calmodulin, 2 mM MnCl2) to the substrate solution above.
(§5) 3) Deliver indicated kinase into the substrate solution and gently mix
(§6) 4) Deliver varying concentrations of test compound in DMSO into the kinase reaction mixture.
(§7) 5) Deliver ^33P-ATP (specific activity 0.01 µCi/µL final) into the reaction mixture to initiate the reaction.
(§8) 6) Incubate kinase reaction for 120 min at room temperature.
(§9) 7) Reactions are spotted onto P81 ion exchange filter paper (Whatman #3698-915)
(§10) 8) Unbound phosphate is removed by washing filters extensively in 0.75% phosphoric acid.
(§11) 9) ^33P signal was determined using Typhoon phosphorimagers (GE Healthcare).
(§12) Substrates: Kemptide=[H-LRRASLG] Abltide=[[…]]

Data set [2] has as its target Aurora A kinase (Homo sapiens (Human), UniProt O14965). The data set is described as follows: Aurora A kinase 33P-ATP filter assay (Reaction Biology Corp.). It counts as biochemical. The method, then:
as §1, §2, §3, §4, §5, §6, §7, §8, §9, §10, §11, §12

Data set [3] concerns HCT-116. Description: Anti-proliferative activity, Alamar Blue assay. It is filed as cell-based. Conditions: Homo sapiens, 96 h exposure, read-out: HCT116 96 Hrs IC50. The method, then:
(§13) The anti-proliferative activities of compounds of the invention are determined by measuring the ability of the compounds to inhibit the growth of the colorectal cancer derived cell-line HCT-116. Inhibition of cell growth is measured using the Alamar Blue assay (Nociari et al., Journal of Immunological Methods (1998) 213, 157-167). The method is based on the ability of viable cells to reduce resazurin to its fluorescent product resorufin. For each proliferation assay cells are plated onto 96 well plates and allowed to recover for 16 hours prior to the addition of inhibitor compounds for a further 96 hours. At the end of the incubation period 10% (v/v) Alamar Blue is added and incubated for a further 6 hours prior to determination of fluorescent product at Excitation 535 nm and Emission 590 nm. All cell lines are obtained from ECACC (European Collection of cell Cultures).
(§14) The activities of the compounds of the invention against the human colorectal cancer cell line HCT-116 are shown the in the table below. The column headed HCT-116 96 Hrs refers to the concentration of compound required to reduce the proliferation of HCT-116 cells by 50% following a 96 h period of exposure. The column headed [Polyploidy] refers to the lowest concentration of compound required to produce a distinct polyploid phenotype, believed to be due to Aurora B inhibition.
Background: The colour change of resazurin is a common sign of viable cells or microbes.

In data set [4] the target is Aurora B kinase (Homo sapiens (Human), UniProt Q96GD4). Description: Aurora B kinase 33P-ATP filter assay (Reaction Biology Corp.). It counts as biochemical. The method, then: as §1, §2, §3, §4, §5, §6, §7, §8, §9, §10, §11, §12
A short description of data set [5]: Caco-2 permeability assay. It is filed as in vitro ADME. The note with it: human; for Papp A→B: A2B, read-out: Caco2 A2B Papp; for Papp B→A: B2A, read-out: Caco2 B2A Papp; for efflux ratio: B2A:A2B, read-out: Caco2 Efflux ratio. The method, then:
The ability of a compound to be taken up and retained by a cell can be measured by carrying out permeability studies using Caco-2 cells.
Compounds of the present invention were therefore tested in a standard Caco-2 assay and the rate of flow of the compounds into and out of the cells was determined.
In the table, the column headed “Caco-2 A2B” indicates the rate at which compound flows into the cells and the column Caco-2 B2A indicates the rate at which compound flows out of the cells. The “Efflux Ratio” is the ratio of Caco-2 B2A:Caco-2 A2B.
Background: Caco-2 cells form a polarised layer with tight junctions and transporters.

Data set [6] relates to HCT-116. The data set is described as follows: Polyploid phenotype in HCT-116 cells. It counts as cell-based, human. The method, then:
as §13, §14

Data set [7] relates to MV4-11 xenograft tumors. Description: MV4-11 xenograft study in nude mice. It counts as in vivo, Balb/c nude mouse. Conditions: 100 mg/kg IP once daily, 4 cycles. An excerpt: The in vivo antitumour activity of compounds of the invention was investigated by examining the effect of the compounds of Examples 2 and 7 on tumour growth in a nude mouse xenograft model of the MV4-11 cancer cell line.
MV4-11 cell line (ATCC, USA); RPMI 1640 medium (Invitrogen, USA); FBS (Invitrogen, Australia); Balb/c nude mouse (Slac Laboratory Animal Co., Ltd., Shanghai, China): female, 18-22 g; HP-6-CD (Sigma, USA).
A total of 52 female nude mice were used. The mice were allowed 3 days of acclimatization period before starting the experiment. Mice were implanted subcutaneously (s.c.) with 200 μl of 1×10^7MV4-11 tumour cells in 50% Matrigel in the right flank at the beginning of the study. When tumours reached an average volume of 100-150 mm^3, 32 mice out of the 52 were selected based on tumour volume, and randomly assigned to 4 groups prior to dosing. Each treatment group consisted of 8 tumour-bearing animals (n=8/group).
A comparison group of mice were treated with cytarabine once daily for 5 days on, 2 days off, for 4 cycles.
Mice were weighed at each dosing and the tumour sizes recorded twice each week. Mice were observed closely for any overt signs of adverse, treatment-related side effects and these were recorded if and when they were observed.
The tumour size was measured twice weekly in two dimensions using calipers, and the volume was expressed in mm^3 using the formula: V=0.5 a×b^2 where a and b were the long and short diameters of the tumour, respectively.
Mice were euthanized by CO2 exposure after 4-cycle dose. The tumour volume, weight of dissected tumours, and the mouse body weight were measured and recorded. The tumour inhibitory rate (IR) was calculated by the formula IR=(WV−WT)/WV×100%.
The differences in tumour size between the groups were analyzed for significance using the unpaired two-tailed Student's t-test. P<0.05 was considered to be statistically significant.

Chain of Aurora B kinase (Q96GD4 whole entry): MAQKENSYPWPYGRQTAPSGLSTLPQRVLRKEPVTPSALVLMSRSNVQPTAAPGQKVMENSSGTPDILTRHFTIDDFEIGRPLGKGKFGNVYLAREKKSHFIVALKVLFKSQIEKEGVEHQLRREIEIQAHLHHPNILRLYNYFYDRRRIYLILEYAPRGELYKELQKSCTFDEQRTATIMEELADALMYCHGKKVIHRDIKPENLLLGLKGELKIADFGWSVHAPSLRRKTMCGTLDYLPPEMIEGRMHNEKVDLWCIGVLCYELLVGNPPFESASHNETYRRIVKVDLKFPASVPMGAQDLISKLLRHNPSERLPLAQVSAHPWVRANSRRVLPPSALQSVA
Chain of Aurora A kinase (O14965 whole entry): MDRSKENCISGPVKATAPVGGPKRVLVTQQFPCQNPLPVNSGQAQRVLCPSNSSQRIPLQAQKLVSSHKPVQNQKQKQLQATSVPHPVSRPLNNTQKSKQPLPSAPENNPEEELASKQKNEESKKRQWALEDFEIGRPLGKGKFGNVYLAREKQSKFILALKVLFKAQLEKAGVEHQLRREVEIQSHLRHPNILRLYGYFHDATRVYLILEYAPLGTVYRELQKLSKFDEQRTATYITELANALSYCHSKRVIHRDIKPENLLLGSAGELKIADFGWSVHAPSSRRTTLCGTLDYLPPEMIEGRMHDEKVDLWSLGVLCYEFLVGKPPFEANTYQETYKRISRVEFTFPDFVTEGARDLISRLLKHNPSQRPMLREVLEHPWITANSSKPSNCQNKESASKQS
Chain of FLT3 kinase (P36888 27-993): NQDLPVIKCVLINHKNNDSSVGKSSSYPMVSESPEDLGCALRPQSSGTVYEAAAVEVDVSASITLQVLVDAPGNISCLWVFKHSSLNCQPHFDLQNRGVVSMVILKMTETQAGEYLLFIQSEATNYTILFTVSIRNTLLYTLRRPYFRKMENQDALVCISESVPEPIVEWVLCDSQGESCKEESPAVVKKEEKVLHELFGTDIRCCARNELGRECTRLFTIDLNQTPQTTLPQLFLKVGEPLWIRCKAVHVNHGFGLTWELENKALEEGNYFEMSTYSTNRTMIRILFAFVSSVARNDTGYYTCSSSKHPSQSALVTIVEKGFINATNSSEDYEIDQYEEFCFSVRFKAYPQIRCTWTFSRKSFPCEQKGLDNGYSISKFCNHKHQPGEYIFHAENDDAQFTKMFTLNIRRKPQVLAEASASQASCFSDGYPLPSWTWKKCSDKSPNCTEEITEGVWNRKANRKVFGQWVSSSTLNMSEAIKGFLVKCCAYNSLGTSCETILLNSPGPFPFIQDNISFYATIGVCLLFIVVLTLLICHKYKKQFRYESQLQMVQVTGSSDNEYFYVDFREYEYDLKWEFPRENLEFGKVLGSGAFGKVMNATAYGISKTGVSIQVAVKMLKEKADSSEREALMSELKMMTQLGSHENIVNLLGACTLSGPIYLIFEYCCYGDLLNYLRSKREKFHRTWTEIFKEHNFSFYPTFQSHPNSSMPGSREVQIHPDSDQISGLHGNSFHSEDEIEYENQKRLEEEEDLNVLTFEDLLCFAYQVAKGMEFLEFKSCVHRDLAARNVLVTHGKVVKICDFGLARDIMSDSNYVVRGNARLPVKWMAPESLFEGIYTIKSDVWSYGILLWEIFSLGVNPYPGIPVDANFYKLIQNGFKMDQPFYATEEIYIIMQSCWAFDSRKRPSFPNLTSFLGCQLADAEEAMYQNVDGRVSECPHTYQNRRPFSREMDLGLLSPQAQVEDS

One may read the IC50 as the concentration at which inhibition is half-maximal. On to `CC1(C)CN(c2ccc(-c3oc(-c4c(F)ccc5[nH]ccc45)nc3C(N)=O)cc2)CCN1` [Example 1, 2-(5-Fluoro-1H-Indol-4-yl)-5-[4-(3,3-dimethyl-piperazin-1-yl)-phenyl]-oxazole-4-carboxylic acid amide], for which the IC50 in data set [1] was determined as 1.92 nM; in data set [2], 14.6 nM; in data set [3] it was 240 nM; in data set [4] it was 24.3 nM. In data set [5], the Papp A→B came out at 0.707 ×10⁻⁶ cm/s. In addition, the Papp B→A in data set [5] was found to be 22.8 ×10⁻⁶ cm/s. For the same molecule, the efflux ratio in data set [5] amounted to 32.2. Also, the “[Polyploidy] lowest concentration producing a distinct polyploid phenotype” value in data set [6] came to 0.3 µM.
In the case of `CC1(C)CN(c2ccc(-c3oc(-c4ccc(F)c5[nH]ccc45)nc3C(N)=O)cc2)CCN1` [Example 3, 2-(7-Fluoro-1H-Indol-4-yl)-5-[4-(3,3-dimethyl-piperazin-1-yl)-phenyl]-oxazole-4-carboxylic acid amide], the concentration for half-maximal inhibition (IC50) in data set [1] is 0.821 nM; in data set [2] it was 19.4 nM; in data set [3], 120 nM; in data set [4] it was 9.36 nM. The Papp A→B in data set [5] is 1.17 ×10⁻⁶ cm/s. Also, the Papp B→A in data set [5] worked out at 7.76 ×10⁻⁶ cm/s. For the same molecule, the efflux ratio in data set [5] came to 6.62. Moreover, in data set [6], the “[Polyploidy] lowest concentration producing a distinct polyploid phenotype” value came out at 0.1 µM.
For the molecule `CC1(C)CN(c2ccc(-c3oc(-c4ccc(Cl)c5[nH]ccc45)nc3C(N)=O)cc2)CCN1` [Example 4, 2-(7-Chloro-1H-Indol-4-yl)-5-[4-(3,3-dimethyl-piperazin-1-yl)-phenyl]-oxazole-4-carboxylic acid amide], the IC50 in data set [1] came out at 0.97 nM; in data set [2], 34 nM; in data set [3], 260 nM; in data set [4] it was 13.9 nM. Further, in data set [5], the Papp A→B stood at 0.64 ×10⁻⁶ cm/s. For the same molecule, the Papp B→A in data set [5] came out at 2.76 ×10⁻⁶ cm/s. The efflux ratio in data set [5] came out at 4.32. The “[Polyploidy] lowest concentration producing a distinct polyploid phenotype” value in data set [6] stood at 0.3 µM.
As for `COc1ccc(-c2nc(C(N)=O)c(-c3ccc(N4CCNC(C)(C)C4)cc3)o2)c2cc[nH]c12` [Example 5, 2-(7-Methoxy-1H-Indol-4-yl)-5-[4-(3,3-dimethyl-piperazin-1-yl)-phenyl]-oxazole-4-carboxylic acid amide], the IC50 in data set [1] stood at 0.89 nM; in data set [2], 20.5 nM; in data set [3], 87 nM; in data set [4], 8.78 nM. The Papp A→B in data set [5] was determined as 1.36 ×10⁻⁶ cm/s. In data set [5], the Papp B→A worked out at 11 ×10⁻⁶ cm/s. Moreover, the “[Polyploidy] lowest concentration producing a distinct polyploid phenotype” value in data set [6] was 0.1 µM.
Consider `Cc1cc(C)c2[nH]ccc2c1-c1nc(C(N)=O)c(-c2ccc(N3CCNC(C)(C)C3)cc2)o1` [Example 6, 2-(5,7-Dimethyl-1H-Indol-4-yl)-5-[4-(3,3-dimethyl-piperazin-1-yl)-phenyl]-oxazole-4-carboxylic acid amide], for which the half-maximal inhibitory concentration (IC50) in data set [1] worked out at 1.37 nM; in data set [2], 88.4 nM; in data set [3], 160 nM; in data set [4] it was 19.6 nM. In data set [5], the Papp A→B amounted to 0.514 ×10⁻⁶ cm/s. For the same molecule, the Papp B→A in data set [5] is 2.08 ×10⁻⁶ cm/s. For the same molecule, in data set [5], the efflux ratio was determined as 4.04. For the same molecule, the “[Polyploidy] lowest concentration producing a distinct polyploid phenotype” value in data set [6] turned out to be 0.1 µM.
Turning to `Cc1c[nH]c2cccc(-c3nc(C(N)=O)c(-c4ccc(N5CCNC(C)(C)C5)cc4)o3)c12` [Example 8, 2-(3-Methyl-1H-Indol-4-yl)-5-[4-(3,3-dimethyl-piperazin-1-yl)-phenyl]-oxazole-4-carboxylic acid amide], the concentration for half-maximal inhibition (IC50) in data set [1] worked out at 0.55 nM. In data set [2], inhibition was half-maximal at 271 nM (IC50). Besides, the IC50 in data set [4] was determined as 14.2 nM. In data set [5], the Papp A→B worked out at 2.07 ×10⁻⁶ cm/s, the Papp B→A came out at 9.19 ×10⁻⁶ cm/s and the efflux ratio is 4.45.
Take `CCc1ccc2[nH]ccc2c1-c1nc(C(N)=O)c(-c2ccc(N3CCNC(C)(C)C3)cc2)o1` [Example 9, 2-(5-Ethyl-1H-Indol-4-yl)-5-[4-(3,3-dimethyl-piperazin-1-yl)-phenyl]-oxazole-4-carboxylic acid amide]: in data set [5], the Papp A→B was found to be 0.519 ×10⁻⁶ cm/s, the Papp B→A came out at 3.59 ×10⁻⁶ cm/s and the efflux ratio amounted to 6.91.
Take `CCc1ccc(-c2nc(C(N)=O)c(-c3ccc(N4CCNC(C)(C)C4)cc3)o2)c2cc[nH]c12` [Example 10, 2-(7-Ethyl-1H-Indol-4-yl)-5-[4-(3,3-dimethyl-piperazin-1-yl)-phenyl]-oxazole-4-carboxylic acid amide]: the IC50 in data set [3] was 220 nM. In data set [5], the Papp A→B amounted to 0.37 ×10⁻⁶ cm/s and the Papp B→A is 2.35 ×10⁻⁶ cm/s. Also, the “[Polyploidy] lowest concentration producing a distinct polyploid phenotype” value in data set [6] was found to be 0.3 µM.
In the case of `CC1(C)CN(c2ccc(-c3oc(-c4cccc5[nH]ccc45)nc3C(N)=O)cc2)CCN1` [Example 11, 2-(1H-Indol-4-yl)-5-[4-(3,3-dimethyl-piperazin-1-yl)-phenyl]-oxazole-4-carboxylic acid amide], the 50% inhibitory concentration (IC50) in data set [2] amounted to 46.2 nM; in data set [3] it was 170 nM; in data set [4], 15.2 nM. For the same molecule, in data set [5], the Papp A→B worked out at 2.47 ×10⁻⁶ cm/s. In addition, the Papp B→A in data set [5] was 12.6 ×10⁻⁶ cm/s. The “[Polyploidy] lowest concentration producing a distinct polyploid phenotype” value in data set [6] is 0.1 µM.
Regarding `CC1(C)CN(c2ccc(-c3oc(-c4ccc(C(F)(F)F)c5[nH]ccc45)nc3C(N)=O)cc2)CCN1` [Example 12, 2-(7-Trifluoromethyl-1H-Indol-4-yl)-5-[4-(3,3-dimethyl-piperazin-1-yl)-phenyl]-oxazole-4-carboxylic acid amide], in data set [1], the concentration for half-maximal inhibition (IC50) is 2.8 nM. In addition, in data set [2], half-maximal inhibition (IC50) was put at 16 nM. The molecule further returned a half-maximal inhibitory concentration (IC50) in data set [4] of 14 nM. For the same molecule, in data set [5], the Papp A→B was 0.036 ×10⁻⁶ cm/s, the Papp B→A came to 1.21 ×10⁻⁶ cm/s and the efflux ratio was determined as 33.5.
Take `NC(=O)c1nc(-c2cccc3[nH]ccc23)oc1-c1ccc(N2CCNCC2)cc1` [Example M-12, 2-(1H-Indol-4-yl)-5-(4-piperazin-1-yl-phenyl)-oxazole-4-carboxylic acid amide, reference compound]: the IC50 in data set [1] was 1.6 nM; in data set [2], 75 nM; in data set [3] it was 680 nM; in data set [4], 13 nM. The Papp A→B in data set [5] is 1.13 ×10⁻⁶ cm/s. For the same molecule, the Papp B→A in data set [5] worked out at 58.3 ×10⁻⁶ cm/s. Besides, in data set [5], the efflux ratio is 51.7. Further, the “[Polyploidy] lowest concentration producing a distinct polyploid phenotype” value in data set [6] amounted to 1.0 µM.
Turning to `Nc1ccn([C@@H]2O[C@H](CO)[C@@H](O)[C@@H]2O)c(=O)n1` [cytarabine, reference compound], in data set [7], the “effect on tumour growth (tumour volume)” value is “slowed down but did not completely block the tumour growth”. For the same molecule, in data set [7] (5 days on, 2 days off), the “tumour inhibitory rate (IR)” value is listed as 66.72%.
